# Several values for one entry are separate records, joined by “and”; a condition that tells them apart may be missing. Equal entries are not always repeated. Where two headings read alike, the source gives them in different places.
# What was measured:
# [1] = system: Influenza B virus; assay: Antiviral activity; format: cell-based; conditions: for MIC50: Influenza B virus
# [2] = system: Cocker Spaniel Hepatocytes (MDCK); assay: Cytotoxicity in MDCK cells; format: cell-based
# [3] = system: Influenza A H1N1 virus; assay: Antiviral activity; format: cell-based; conditions: for MIC50: Influenza A virus
# [4] = system: Influenza A H3N2 virus; assay: Antiviral activity; format: cell-based; conditions: for MIC50: Influenza A virus
# [5] = system: Human Erythroleukemia Cells (HEL); assay: Cytotoxicity; format: cell-based; conditions: morphological changes detected microscopically
# [6] = system: Simplex herpes 2 G virus; assay: Antiviral activity; format: cell-based, Simplex herpes 2 virus; conditions: read-out: MIC50 Simplex herpes 2 G virus
# [7] = system: Vesicular stomatitis virus; assay: microbe, parasite or virus in culture; format: cell-based; conditions: read-out: MIC50 Vesicular stomatitis virus
# [8] = system: Simplex herpes 1 KOS virus; assay: Antiviral activity; format: cell-based, Simplex herpes 1 virus; conditions: read-out: MIC50 Simplex herpes 1 KOS virus
# [9] = system: Simplex herpes 1 TK-KOS ACVr virus; assay: Antiviral activity; format: cell-based, Simplex herpes 1 virus; conditions: read-out: MIC50 Simplex herpes 1 TK-KOS ACVr virus
# [10] = system: African Green Monkey Epithelial Kidney Cells (VERO); assay: Cytotoxicity in VERO cells; format: cell-based
# [11] = system: Respiratory syncytial virus; assay: Antiviral activity; format: cell-based; conditions: human respiratory syncytial virus, read-out: MIC50 Respiratory syncytial virus
# [12] = system: Feline coronavirus; assay: Antiviral activity; format: cell-based; conditions: for MIC50: Alphacoronavirus 1, read-out: MIC50 Feline coronavirus; for MIC50 Feline coronavirus: CRFK cells
# [13] = system: Reovirus 1; assay: Antiviral activity; format: cell-based; conditions: Mammalian orthoreovirus 1, read-out: MIC50 Reovirus 1
# [14] = system: Cervical Cancer Cells (HeLa); assay: Cytotoxicity in HeLa cells; format: cell-based
# [15] = system: Parainfluenza 3 virus; conditions: literature data; cited from earlier work
# [16] = system: Feline herpes virus; assay: Antiviral activity; format: cell-based; conditions: for MIC50: read-out: MIC50 Feline herpes virus
# [17] = system: Respiratory syncytial virus; conditions: literature data; cited from earlier work
# [18] = system: Influenza A H1N1 virus; conditions: previously reported; cited from earlier work
# [19] = Cytotoxicity in MDCK cells; format: cell-based, Cocker Spaniel; conditions: dog
# [20] = system: Sindbis virus; assay: Antiviral activity; format: cell-based; conditions: read-out: MIC50 Sindbis virus
# [21] = system: Influenza A H3N2 virus; conditions: literature; cited from earlier work
# [22] = system: Vesicular stomatitis virus; assay: microbe, parasite or virus in culture; format: cell-based; conditions: read-out: MIC50 Vesicular stomatitis virus; remark: listed apart in the source
# [23] = system: Influenza B virus; conditions: literature; cited from earlier work
# [24] = system: Feline Kidney Cells (CRFK); assay: Cytotoxicity in CRFK cells; format: cell-based
# [25] = system: Parainfluenza 3 virus; assay: Antiviral activity; format: cell-based; conditions: read-out: MIC50 Parainfluenza 3 virus
# [26] = MDCK cells, colorimetric assessment
# [27] = MDCK cells, visual assessment (microscopy)
# [28] = read-out: MIC50 Influenza B virus CA
# [29] = read-out: MIC50 Influenza B virus VA
# [30] = H1N1, read-out: MIC50 Influenza A H1N1 virus CA
# [31] = H1N1, read-out: MIC50 Influenza A H1N1 virus VA
# [32] = H3N2, read-out: MIC50 Influenza A H3N2 virus CA
# [33] = H3N2, read-out: MIC50 Influenza A H3N2 virus VA
Compound,MCC [2],MCC (minimum cytotoxic concentration) [5],MIC50 [6],MIC50 [7],MIC50 [8],MIC50 [9],MIC50 [11],MIC50 [13],MCC [14],"MIC50 [1, 28]","MIC50 [1, 29]",CC50 [19],MIC50 [20],MIC50 [22],"MIC50 [3, 30]","MIC50 [3, 31]",MIC50 [25],"MIC50 [4, 32]","MIC50 [4, 33]",also measured
CC(N)C12CC3CC(CC(C3)C1)C2 (centres unmarked) [Remantadine],>200 µM,,,,,,,,,,,,,,,,,,,"MIC50 Influenza B virus CA [1, 26]: >200 µM; MIC50 Influenza B virus VA [1, 27]: >200 µM; MIC50 Influenza A H1N1 virus CA [3, 26]: 10.3 µM; MIC50 Influenza A H1N1 virus VA [3, 27]: 20 µM; MIC50 Influenza A H3N2 virus CA [4, 26]: 0.3 µM; MIC50 Influenza A H3N2 virus VA [4, 27]: 0.3 µM"
O=c1[nH]c(=O)n([C@H]2C[C@H](O)[C@@H](CO)O2)cc1/C=C/Br [Brivudine],,>250 µM,183 µM,> 250 µM,0.04 µM,2 µM,,,,,,,,,,,,,,
"CCOC(=O)c1c(CSc2ccccc2)n(C)c2cc(Br)c(O)c(CN(C)C)c12.Cl.O [Umifenovir, Ethyl 6-bromo-4-(dimethylamino)methyl-5-hydroxy-1-methyl-2-(phenylsulfanyl)methyl-1 H -indole-3-carboxylate hydrochloride monohydrate]",19.6 μM and 10.4 μg/ml,188 μM and 100 μg/ml,> 37 µM and > 20 µg/mL,> 37 µM and > 20 µg/mL,> 37 µM and > 20 µg/mL,> 37 µM and > 20 µg/mL,> 7.5 µM and > 4 µg/mL,> 190 µM and > 100 µg/mL,37 μM and 20 μg/ml,> 7.5 µM and > 4 µg/mL,> 7.5 µM and > 4 µg/mL,37 µM and 20 µg/mL,> 190 µM and > 100 µg/mL,> 7.5 µM and > 4 µg/mL,> 7.5 µM and > 4 µg/mL,> 7.5 µM and > 4 µg/mL,> 190 µM and > 100 µg/mL,> 7.5 µM and > 4 µg/mL,> 7.5 µM and > 4 µg/mL,MCs [10]: > 190 μM and > 100 μg/ml; MIC50 [12]: > 7.5 µM and > 4 µg/mL; MIC50 parainfluenza 3 virus [15]: 4.9 µg/mL; MIC50 [16]: > 7.5 µM and > 4 µg/mL; MIC50 respiratory syncytial virus [17]: 8.7 µg/mL; MIC50 influenza A H1N1 virus replication [18]: 2.7 to 4.0 µg/mL; MCC ([2]; listed as umifenovir): 10.4 µg/mL; MIC50 H3N2 influenza A virus replication [21]: 6.7 µg/mL; MIC50 influenza B virus replication [23]: 7.1 µg/mL; MCC [24]: 19.0 μM and 10.1 μg/ml; MCC ([24]; listed as umifenovir): 10.1 µg/mL
NC12CC3CC(CC(C3)C1)C2 [Amantadine],>200 µM,,,,,,,,,> 200 µM,> 200 µM,> 200 µM,,,83.9 µM,89 µM,,1.6 µM,4 µM,
CC(=O)N[C@H]1[C@H]([C@H](O)[C@H](O)CO)OC(C(=O)O)=C[C@@H]1N=C(N)N [Zanamivir],>100 µM,,,,,,,,,0.3 µM,,> 100 µM,,,1.2 µM,0.8 µM,,2 µM,4 µM,
"CCOC(=O)c1c([C@@H]2C[C@H]2c2ccccc2)n(C)c2ccc(O)cc12 (relative stereo) [Compound 3, ethyl 5-hydroxy-1-methyl-2-(trans-2-phenylcyclopropyl)-1H-indole-3-carboxylate]",,> 300 μM and > 100 μg/ml,> 300 µM and > 100 µg/mL,> 300 µM and > 100 µg/mL,> 300 µM and > 100 µg/mL,> 300 µM and > 100 µg/mL,> 300 µM and > 100 µg/mL,> 300 µM and > 100 µg/mL,> 300 μM and > 100 μg/ml,> 12 µM and > 4 µg/mL,> 12 µM and > 4 µg/mL,59.6 µM and 20 µg/mL,> 300 µM and > 100 µg/mL,> 300 µM and > 100 µg/mL,> 12 µM and > 4 µg/mL,> 12 µM and > 4 µg/mL,> 300 µM and > 100 µg/mL,> 12 µM and > 4 µg/mL,> 12 µM and > 4 µg/mL,MIC50 [12]: > 300 µM and > 100 µg/mL; MIC50 [16]: > 300 µM and > 100 µg/mL
NC(=O)c1ncn([C@@H]2O[C@H](CO)[C@@H](O)[C@H]2O)n1 [Ribavirin],>100 µM,,,,,,10 µM,> 250 µM,>250 µM,5.9 µM,20 µM,> 100 µM,> 250 µM,10 µM,6.4 µM,9 µM,50 µM,10.7 µM,9 µM,
"Nc1ncnc2c1ncn2C[C@H](O)CO [(S)-DHPA, 9-((2S)-2,3-Dihydroxypropyl)adenine]",,,,,,,> 250 µM,> 250 µM,>250 µM,,,,> 250 µM,> 250 µM,,,> 250 µM,,,
3'-(1-Carboxy-1-phosphonoxyethoxy)uridinediphosphate-N-acetylglucosamine [UDA],,,,,,,,,,,,,,,,,,,,MIC50 Feline coronavirus [12]: 1.1 µM; MIC50 Feline herpes virus ([16]; CRFK cells): 0.8 µM
Nc1ccn(C[C@@H](CO)OCP(=O)(O)O)c(=O)n1 [Cidofovir],,>250 µM,2 µM,> 250 µM,6 µM,6 µM,,,,,,,,,,,,,,
"N[C@H]1C(C(=O)O)=CC=C[C@@H]1O (relative stereo) [HHA, (2S,3S)-trans-3-Hydroxy-2,3-dihydroanthranilic acid]",,,,,,,,,,,,,,,,,,,,MIC50 Feline coronavirus [12]: 13.0 µM
Nc1nc(O)c2ncn(COC(CO)CO)c2n1 [Ganciclovir],,>100 µM,0.03 µM,> 100 µM,0.08 µM,0.2 µM,,,,,,,,,,,,,,MIC50 [12]: > 100 µM
Nc1nc2c(ncn2COCCO)c(=O)[nH]1 [Acyclovir],,>250 µM,0.08 µM,250 µM,0.2 µM,2 µM,,,,,,,,,,,,,,

# — PMC7088350 (Chemistry of Heterocyclic Compounds, 2014)
